IC50 data for 18 molecules are collected here from patent US10308644B2, “Heterocyclic compounds as immunomodulators” (Incyte Corporation, priority 2016, dated 2019).

Where only a bound is given, the exact number is not on record here.

Sequence of PD-1/PD-L1 (Q9NZQ7 19-238): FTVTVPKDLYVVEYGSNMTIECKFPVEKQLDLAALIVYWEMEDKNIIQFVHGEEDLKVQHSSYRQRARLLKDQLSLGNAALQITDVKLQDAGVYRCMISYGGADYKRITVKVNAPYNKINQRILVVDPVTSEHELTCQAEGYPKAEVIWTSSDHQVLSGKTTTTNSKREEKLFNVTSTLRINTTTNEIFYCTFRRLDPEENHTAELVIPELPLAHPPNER

In the test the target is PD-1/PD-L1 (Homo sapiens (Human), UniProt Q9NZQ7). The test is described as follows: PD-1/PD-L1 Homogeneous Time-Resolved Fluorescence (HTRF) Binding Assay. To be noted: recombinant human PD-1 (3 nM) and PD-L1 (10 nM), 25° C., PBS pH 7.4. As for the experimental part:
Example A. PD-1/PD-L1 Homogeneous Time-Resolved Fluorescence (HTRF) Binding Assay
The assays were conducted in a standard black 384-well polystyrene plate with a final volume of 20 μL. Inhibitors were first serially diluted in DMSO and then added to the plate wells before the addition of other reaction components. The final concentration of DMSO in the assay was 1%. The assays were carried out at 25° C. in the PBS buffer (pH 7.4) with 0.05% Tween-20 and 0.1% BSA. Recombinant human PD-L1 protein (19-238) with a His-tag at the C-terminus was purchased from AcroBiosystems (PD1-H5229). Recombinant human PD-1 protein (25-167) with Fc tag at the C-terminus was also purchased from AcroBiosystems (PD1-H5257). PD-L1 and PD-1 proteins were diluted in the assay buffer and 10 μL was added to the plate well. Plates were centrifuged and proteins were preincubated with inhibitors for 40 minutes. The incubation was followed by the addition of 10 μL of HTRF detection buffer supplemented with Europium cryptate-labeled anti-human IgG (PerkinElmer-AD0212) specific for Fc and anti-His antibody conjugated to SureLight®-Allophycocyanin (APC, PerkinElmer-AD0059H). After centrifugation, the plate was incubated at 25° C. for 60 min. before reading on a PHERAstar FS plate reader (665 nm/620 nm ratio). Final concentrations in the assay were—3 nM PD1, 10 nM PD-L1, 1 nM europium anti-human IgG and 20 nM anti-His-Allophycocyanin. IC50 determination was performed by fitting the curve of percent control activity versus the log of the inhibitor concentration using the GraphPad Prism 5.0 software.
One may read the IC50 as the point on the concentration scale where inhibition reaches its midpoint. Regarding `Cc1c(Nc2nccc3cc(CN[C@H](C)CO)cnc23)cccc1-c1cccc(-c2nc3cc(CN4CC[C@@H](C(=O)O)C4)cc(C#N)c3o2)c1C` [Example 258, (R)-1-((7-cyano-2-(3′-(3-(((R)-1-hydroxypropan-2-ylamino)methyl)-1,7-naphthyridin-8-ylamino)-2,2′-dimethylbiphenyl-3-yl)benzo[d]oxazol-5-yl)methyl)pyrrolidine-3-carboxylic acid], the IC50 is not above 10 nM.
On to `Cc1c(-c2nc3cc(CN4CC[C@@H](C(=O)O)C4)cc(C#N)c3o2)cccc1-c1cccc(-c2nc3c(s2)CN(C(C)C)CC3)c1C` [Example 63, (R)-1-((7-cyano-2-(3′-(5-isopropyl-4,5,6,7-tetrahydrothiazolo[5,4-c]pyridin-2-yl)-2,2′-dimethyl-[1,1′-biphenyl]-3-yl)benzo[d]oxazol-5-yl)methyl)pyrrolidine-3-carboxylic acid], for which the 50% inhibitory concentration (IC50) was not above 10 nM.
The same measure for `Cc1c(Nc2nccc3cc(CN4CC[C@@](C)(O)C4)cnc23)cccc1-c1cccc(-c2nc3cc(CN4CC[C@@H](C(=O)O)C4)cc(C#N)c3o2)c1C` [Example 137, (R)-1-((7-cyano-2-(3′-(3-(((R)-3-hydroxy-3-methylpyrrolidin-1-yl)methyl)-1,7-naphthyridin-8-ylamino)-2,2′-dimethylbiphenyl-3-yl)benzo[d]oxazol-5-yl)methyl)pyrrolidine-3-carboxylic acid]: not above 10 nM.
Then `Cc1c(Nc2nccc3cc(CN4CC[C@@H](O)C4)cnc23)cccc1-c1cccc(-c2nc3cc(CNC45CCC(C(=O)O)(CC4)C5)cc(C#N)c3o2)c1C` [Example 183, (R)-4-((7-cyano-2-(3′-(3-((3-hydroxypyrrolidin-1-yl)methyl)-1,7-naphthyridin-8-ylamino)-2,2′-dimethylbiphenyl-3-yl)benzo [d]oxazol-5-yl)methylamino)bicyclo[2.2.1]heptane-1-carboxylic acid], with not above 10 nM.
Then `Cc1c(-c2nc3cc(CN4CC[C@@](C)(C(=O)O)C4)cc(C#N)c3o2)cccc1-c1cccc(-c2nc3c(s2)CN(C(=O)CN(C)[C@H](C)CO)C3)c1C` [Example 225, (R)-1-((7-cyano-2-(3′-(5-(2-(((R)-1-hydroxypropan-2-yl)(methyl)amino)acetyl)-5,6-dihydro-4H-pyrrolo[3,4-d]thiazol-2-yl)-2,2′-dimethylbiphenyl-3-yl)benzo[d]oxazol-5-yl)methyl)-3-methylpyrrolidine-3-carboxylic acid], with not above 10 nM.
For the molecule `CCN1CCc2cn(-c3cccc(-c4cccc(-c5nc6cc(CN7CC[C@@H](C(=O)O)C7)cc(C#N)c6o5)c4C)c3Cl)nc2C1` [Example 58, (R)-1-((2-(2′-chloro-3′-(6-ethyl-4,5,6,7-tetrahydro-2H-pyrazolo[3,4-c]pyridin-2-yl)-2-methylbiphenyl-3-yl)-7-cyanobenzo[d]oxazol-5-yl)methyl)pyrrolidine-3-carboxylic acid], the half-maximal inhibitory concentration (IC50) was not above 10 nM.
Then `Cc1c(-c2nc3c(o2)CN(C(=O)CN2CC[C@@H](C(=O)O)C2)C3)cccc1-c1cccc(-c2nc3cc(CN4CC[C@@H](O)C4)cc(C#N)c3o2)c1C` [Example 132, (R)-1-(2-(2-(3′-(7-cyano-5-(((R)-3-hydroxypyrrolidin-1-yl)methyl)benzo[d]oxazol-2-yl)-2,2′-dimethyl-[1,1′-biphenyl]-3-yl)-4,6-dihydro-5H-pyrrolo[3,4-d]oxazol-5-yl)-2-oxoethyl)pyrrolidine-3-carboxylic acid], with not above 10 nM; and `Cc1c(-c2nc3c(o2)CN(C(=O)CN(C)C(C)C)C3)cccc1-c1cccc(-c2nc3cc(CN4CC[C@@](C)(C(=O)O)C4)cc(C#N)c3o2)c1C` [Example 248, (R)-1-((7-cyano-2-(3′-(5-(N-isopropyl-N-methylglycyl)-5,6-dihydro-4H-pyrrolo[3,4-d]oxazol-2-yl)-2,2'-dimethyl-[1,1′-biphenyl]-3-yl)benzo[d]oxazol-5-yl)methyl)-3-methylpyrrolidine-3-carboxylic acid], with not above 10 nM; and `Cc1c(Nc2nccc3cc(C4CN(CCO)C4)cnc23)cccc1-c1cccc(-c2nc3cc(CN4CC[C@@H](C(=O)O)C4)cc(C#N)c3o2)c1C` [Example 96, (R)-1-((7-cyano-2-(3′-(3-(1-(2-hydroxyethyl)azetidin-3-yl)-1,7-naphthyridin-8-ylamino)-2,2′-dimethylbiphenyl-3-yl)benzo[d]oxazol-5-yl)methyl)pyrrolidine-3-carboxylic acid], with not above 10 nM.
The same measure for `Cc1c(-c2nc3c(o2)CNCC3)cccc1-c1cccc(-c2nc3cc(CN4CC[C@@H](C(=O)O)C4)cc(Cl)c3o2)c1C` [Example 78, (R)-1-((7-chloro-2-(2,2′-dimethyl-3′-(4,5,6,7-tetrahydrooxazolo[5,4-c]pyridin-2-yl)-[1,1′-biphenyl]-3-yl)benzo[d]oxazol-5-yl)methyl)pyrrolidine-3-carboxylic acid]: not above 10 nM.
Then `CNC(=O)[C@@H]1CCN(Cc2cc(C#N)c3oc(-c4cccc(-c5cccc(-c6nc7c(s6)CN(C(C)C)CC7)c5C)c4C)nc3c2)C1` [Example 117, (R)-1-((7-cyano-2-(3′-(5-isopropyl-4,5,6,7-tetrahydrothiazolo[5,4-c]pyridin-2-yl)-2,2′-dimethyl-[1,1′-biphenyl]-3-yl)benzo[d]oxazol-5-yl)methyl)-N-methylpyrrolidine-3-carboxamide], with not above 10 nM; and `Cc1c(-c2nc3c(o2)CN(C(=O)CN2CCC(O)CC2)C3)cccc1-c1cccc(-c2nc3cc(CN4CC5CC4CC5C(=O)O)cc(C#N)c3o2)c1C` (stereo not drawn) [Example 251, 2-((7-cyano-2-(3′-(5-(2-(4-hydroxypiperidin-1-yl)acetyl)-5,6-dihydro-4H-pyrrolo[3,4-d]oxazol-2-yl)-2,2′-dimethyl-[1,1′-biphenyl]-3-yl)benzo[d]oxazol-5-yl)methyl)-2-azabicyclo[2.2.1]heptane-5-carboxylic acid], with not above 10 nM; and `Cc1c(-c2nc3cc(CN4CCC(C(=O)O)CC4)cc(C#N)c3o2)cccc1-c1cccc(NC(=O)c2nc3c(n2C)CCN(CCO)C3)c1Cl` [Example 156, 1-((2-(2′-chloro-3′-(5-(2-hydroxyethyl)-1-methyl-4,5,6,7-tetrahydro-1H-imidazo[4,5-c]pyridine-2-carboxamido)-2-methylbiphenyl-3-yl)-7-cyanobenzo[d]oxazol-5-yl)methyl)piperidine-4-carboxylic acid], with not above 10 nM.
Consider `Cc1c(-c2nc3cc(CN4CCC(C(=O)O)CC4)cc(C#N)c3o2)cccc1-c1cccc(-c2nc3c(s2)CN(C(=O)CN(C)C)C3)c1C` [Example 236, 1-((7-cyano-2-(3′-(5-(2-(dimethylamino)acetyl)-5,6-dihydro-4H-pyrrolo[3,4-d]thiazol-2-yl)-2,2′-dimethylbiphenyl-3-yl)benzo[d]oxazol-5-yl)methyl)piperidine-4-carboxylic acid], for which the IC50 is not above 10 nM.
In the case of `Cc1c(-c2nc3c(o2)CN(C(=O)CN2CC(O)C2)C3)cccc1-c1cccc(-c2nc3cc(CN4CC[C@@H](C(=O)O)C4)cc(C#N)c3o2)c1C` [Example 127, (R)-1-((7-cyano-2-(3′-(5-(2-(3-hydroxyazetidin-1-yl)acetyl)-5,6-dihydro-4H-pyrrolo[3,4-d]oxazol-2-yl)-2,2′-dimethyl-[1,1′-biphenyl]-3-yl)benzo[d]oxazol-5-yl)methyl)pyrrolidine-3-carboxylic acid], the half-maximal inhibitory concentration (IC50) was not above 10 nM.
Then `Cc1c(-c2nc3cc(CN4CC[C@@](C)(C(=O)O)C4)cc(C#N)c3o2)cccc1-c1cccc(-c2nc3c(s2)CN(C(=O)CN(C)CC2CC2)C3)c1C` [Example 219, (R)-1-((7-cyano-2-(3′-(5-(2-((cyclopropylmethyl) (methyl)amino)acetyl)-5,6-dihydro-4H-pyrrolo[3,4-d]thiazol-2-yl)-2,2′-dimethylbiphenyl-3-yl)benzo[d]oxazol-5-yl)methyl)-3-methylpyrrolidine-3-carboxylic acid], with not above 10 nM; and `Cc1c(-c2nc3cc(CN4CC[C@@H](C(=O)O)C4)cc(C#N)c3o2)cccc1-c1cccc(-c2nc3c(s2)C(C)(C)N(C)CC3)c1C` [Example 79, (R)-1-((7-cyano-2-(2,2′-dimethyl-3′-(4,4,5-trimethyl-4,5,6,7-tetrahydrothiazolo[5,4-c]pyridin-2-yl)-[1,1′-biphenyl]-3-yl)benzo[d]oxazol-5-yl)methyl)pyrrolidine-3-carboxylic acid], with not above 10 nM; and `Cc1c(-c2nc3cc(CN4CCC(C(=O)O)CC4)cc(C#N)c3o2)cccc1-c1cccc(NC(=O)c2nc3c(n2C)CC(C)N(C)C3)c1Cl` (stereo not drawn) [Example 162, 1-((2-(2′-chloro-2-methyl-3′-(1,5,6-trimethyl-4,5,6,7-tetrahydro-1H-imidazo[4,5-c]pyridine-2-carboxamido)biphenyl-3-yl)-7-cyanobenzo[d]oxazol-5-yl)methyl)piperidine-4-carboxylic acid], with not above 10 nM.
